In paper PMC6522510 (Nature Communications, 2019):

Legend:
Design in all cases: species or system AML cell lines (8); Primary HTS, single concentration about 10 uM, Cell Titer Glo viability; log10 luminescence, per cent inhibition relative to cycloheximide control
Conditions in all cases: 72 h, relative to cycloheximide control, log10 luminescence; inhibitor
[1] = system: ML-2
[2] = system: MOLM-13
[3] = system: U937
[4] = system: M07e
[5] = system: MV4-11
[6] = system: CMK
[7] = system: CHRF288-11
[8] = system: CMS

Structure (SMILES)	ML-2 %inh [1]	MOLM-13 %inh [2]	U937 %inh [3]	M07e %inh [4]	MV4-11 %inh [5]	CMK %inh [6]	CHRF288-11 %inh [7]	CMS %inh [8]
CN(C)C(=O)O[C@H]1CN[C@H](C#Cc2cc3ncnc(Nc4ccc(OCc5cccc(F)c5)c(Cl)c4)c3s2)C1 [SJ000573053-1, U20298/139/1 | U20747/39/1]	5.015%	-0.949%	-0.4617%	1.476%	4.747%	-4.087%	65.04%	2.516%
CN(C)C(=O)O[C@@H]1CN[C@@H](C#Cc2cc3ncnc(Nc4ccc(OCc5cccc(F)c5)c(Cl)c4)c3s2)C1 [SJ000573053-2, U20298/139/1 | U20747/39/1]	1.706%	-3.067%	3.489%	-1.206%	-0.77%	-4.505%	39.41%	4.277%
COc1cccc(-n2cnc3c(N/N=C/c4ccncc4)ncnc32)c1 [SJ000573055-1, U17791/62/2]	-0.9344%	29.19%	6.107%	2.779%	22.16%	9.137%	0.9652%	0.1507%
CN1CCN(C(=O)c2ccc(NC(=O)Nc3ccc(N(C)c4ccnc(Nc5ccc(CS(C)(=O)=O)cc5)n4)cc3)cc2)CC1 [SJ000573056-1, U17983/92/5]	10.8%	94.26%	5.393%	-6.05%	82.16%	6.346%	0.03637%	-2.808%
Cc1ccc2c(-c3ccnc(Nc4cccc(C(F)(F)F)c4)n3)c(-c3ccccc3)nn2n1 [SJ000573057-1, U18020/146/1]	9.435%	-0.1836%	5.106%	0.344%	9.271%	8.756%	-3.995%	10.95%
COc1cc(C=NNc2ncnc3c2cnn3Cc2ccccc2)ccc1O [SJ000573058-1, T237/25/8]	0.3051%	-1.629%	-2.319%	-2.447%	-3.195%	-3.542%	-7.429%	-1.754%
COc1ccc(C2=C(N3CCc4ccccc43)C(=O)NC2=O)cc1 [SJ000573061-1, DH97836-162A1]	4.148%	-1.299%	9.443%	1.612%	5.926%	1.284%	16.97%	1.472%
CCc1cccc(CC)c1/C=C/c1cncc(C(=O)NC)c1 [SJ000573062-1, U12068/83/1]	7.466%	18.25%	29.57%	15.2%	-0.1109%	82.75%	36.66%	0.8952%
COc1cc(Nc2ncc3c(C)nc(-c4cccc(Oc5ccccc5)c4)n3n2)cc(OC)c1OC [SJ000573063-1, U19891/44/1]	2.68%	53.84%	10.08%	11.27%	46.32%	25.77%	8.926%	22.07%
CCN1CCC(CC(=O)Nc2n[nH]c3nnc(-c4cccc(F)c4F)cc23)CC1 [SJ000573064-1, VB101259-076A3]	6.747%	13.03%	13.36%	13.75%	39.53%	96.65%	30.8%	104.4%
Cn1cc(C=C2C(=O)Nc3cccnc32)c2ccccc21 [SJ000573065-1, U14362/24/1 | GW-441756 | GW441756]	-1.442%	21.32%	-3.233%	-6.294%	36.15%	2.086%	-4.894%	-3.947%
NCc1ccc(-n2c(-c3nonc3N)nc3cnccc32)cc1 [SJ000573066-1, CP100101-172A1]	11.91%	27.71%	21.07%	5.233%	62.53%	18.18%	11.55%	11.21%
O=C(Nc1n[nH]c2cc(-c3ccccc3)ccc12)C1CC1 [SJ000573067-1, VB100064-117A1]	19.77%	40.31%	46.5%	17.84%	0.9726%	85.27%	40.96%	3.176%
Cc1cc(O)cc(C)c1/C=C/c1cncc(C(N)=O)c1 [SJ000573068-1, U11805/173/2]	51.45%	75.99%	80.88%	72.97%	70.37%	90.65%	44.74%	51.62%
CNC(=O)c1cncc(/C=C/c2ccccc2C)c1 [SJ000573069-1, U12068/59/1]	-0.01519%	-1.542%	-1.047%	4.224%	-0.4269%	-3.696%	-2.201%	0.1448%
CNC(=O)c1cncc(/C=C/c2ccccc2Cl)c1 [SJ000573070-1, U12068/61/1]	26.34%	4.101%	0.1459%	31.9%	-1.892%	93.63%	33.2%	-0.2342%
CS(=O)(=O)CCNCc1nc(-c2ccc3ncnc(Nc4ccc(OCc5cccc(C(F)(F)F)c5)cc4)c3c2)cs1 [SJ000573071-1, U14859/60/2]	1.048%	70.81%	0.6329%	1.42%	64.74%	3.287%	-1.328%	1.221%
c1ccc(Nc2ncc(-c3ccccc3)o2)cc1 [SJ000573072-1, U13103/99/1]	3.842%	84.62%	3.569%	-2.471%	59.12%	6.254%	2.769%	-0.2616%
COc1ccc(-c2nn3ncccc3c2-c2ccnc(Nc3ccc(Cl)c(C(F)(F)F)c3)n2)cc1 [SJ000573073-1, U17838/183/2]	-1.529%	-0.8658%	0.7639%	-2.862%	3.163%	3.073%	1.294%	0.1387%
